Assay results from patent US20250312412A1, “METHODS FOR TREATING DRY EYE DISEASE” (The Schepens Eye Research Institute, Inc., priority 2022, published 2025).
Residues, ends and D or L forms follow the SMILES beside them.

Tests used:
[1] = tested on: human corneal epithelial cells; assay: Co-culture of human corneal epithelial cells and Th17 cells, density and morphology by microscopy, Examples 2 and 3; assay type: cell-based; details: 0.1 μM, 1 μM, 10 μM and 100 μM; 24 hours
Protocol: A co-culture of human corneal epithelial cells and Th17 cells was prepared, to mimic the in vivo interaction between Th17 cells and cornea tissue in dry eye disease. The therapeutic efficacy of an IL-17 inhibitor to protect the human corneal epithelial cells from Th17-induced damage was tested. Immortalized human corneal epithelial cells were obtained. To acquire human Th17 cells, naïve CD4+ T cells were first purified from primary human peripheral blood mononuclear cells (StemCell) by negative selection using MACS separation, follow by in vitro polarization to Th17 cells using human Th17 cell differentiation kit (RnD Systems) in X-VIVO 15 medium (Lonza). Successful differentiation of human Th17 cells was confirmed by flow cytometry before co-culture. At about 80% confluence of human corneal epithelial cell culture, 1×10^5 Th17 cells were added, with and without an IL-17 inhibitor. After 24 hours of co-culture in the presence of the IL-17 inhibitor, the density and morphology of human corneal epithelial cells were observed under a bright-light inverted microscope equipped with a camera.
A co-culture of human corneal epithelial cells and Th17 cells was prepared, to mimic the in vivo interaction between Th17 cells and cornea tissue in dry eye disease. The therapeutic efficacy of an IL-17 inhibitor to protect the human corneal epithelial cells from Th17-induced damage was tested. […]

[2] = tested on: mice induced with dry eye disease; assay: Corneal fluorescein staining (CFS) score in mice with induced dry eye disease, Example 1; assay type: in vivo; details: topical to the eye, day 4 to day 12; antibody 1 wt % once or twice daily, lifitegrast 5 wt % twice daily, cyclosporine 0.05 wt % twice daily
Protocol: FIG. 1 is a graph of corneal fluorescein staining (CFS) scored using the National Eye Institute Industry Workshop Scale of 0-15, as a function of time, in days, in mice induced with dry eye disease by placing them in a controlled-environment chamber (relative humidity: <20%, dry airflow: 15 L/min, temperature: 21˜23° C.) for 14 days. Corneal epithelial disease was evaluated using corneal fluorescein staining (CFS) and scored using the National Eye Institute Industry Workshop Scale of 0-15, at day 0 (normal baseline), day 4 (before instillation of topical therapy), day 7, day 10, and […] in mice treated by topical application to the eye with an anti-IL-17A antibody once daily (closed circles) or twice daily (closed squares), lifitegrast (XIIDRA®) twice daily (inverted triangles), cyclosporine (RESTASIS®) twice daily (triangles), or saline twice daily (diamonds).
In a first study, described in Example 1, treatment of dry eye disease with an IL-17 cytokine inhibitor, lifitegrast ophthalmic solution (XIIDRA®), and cyclosporine ophthalmic emulsion (RESTASIS®) were compared. […] The test compounds were applied topically to the eye for 9 days (from day 4 to day 12), and disease severity was evaluated using corneal fluorescein staining (CFS) and scored using the National Eye Institute Industry Workshop Scale of 0-15 on days 4, 7, 10 and 12. […]

[3] = tested on: goblet cells; assay: Goblet cell count in conjunctival tissue sections of dry eye mice, Example 1; assay type: in vivo; details: conjunctiva, mice with dry eye disease treated twice daily
Protocol: With continued reference to the study of Example 1, ocular tissue was harvested from the mice and tissue sections were prepared for microscopy analysis. Cross-sections of the conjunctiva were stained and the images were inspected to quantify goblet cell density. Goblet cells within the conjunctival epithelium secrete mucins onto the surface of the eye. FIG. 3A is an image of conjunctiva from a healthy mouse with no dry eye disease, and the goblet cells are visible as the darkly stained, plump cells. FIGS. 3B-3E are images from the conjunctiva from a subject in the animals with dry eye disease and treated twice daily with saline as a control (FIG. 3B), cyclosporine ophthalmic emulsion (RESTASIS®; FIG. 3C), lifitegrast ophthalmic solution (XIIDRA®) (FIG. 3D), or anti-IL-17A antibody (FIG. 3E). The numbers of goblet cells were counted, and FIG. 3F is a bar graph of the percent of normal goblet cells for the normal (healthy) mice and mice with dry eye disease treated with saline, cyclosporine, lifitegrast or an IL-17A inhibitor. […] Subjects with dry eye disease and treated with cyclosporine or with lifitegrast had about 60% of the normal number of goblet cells. […]

CC[C@H](C)[C@H](NC(=O)[C@H](Cc1c[nH]c2ccccc12)NC(=O)[C@H](CC(=O)O)NC(=O)[C@H](Cc1c[nH]c2ccccc12)NC(=O)[C@H](CC(C)C)NC(=O)[C@H](CC(=O)O)NC(=O)[C@H](C)NC(=O)[C@@H]1CCCN1C(=O)[C@@H](NC(=O)[C@@H](NC(=O)[C@@H](NC(=O)[C@H](Cc1c[nH]cn1)NC(=O)[C@@H](N)C(C)C)C(C)C)[C@@H](C)O)[C@@H](C)CC)C(=O)N[C@@H](CC(N)=O)C(=O)N[C@@H](CCCCN)C(=O)O [SEQ ID NO: 1, VHVTIPADLWDWINK] (H-VHVTIPADLWDWINK-OH)
toxicity to human corneal epithelial cells [1]: not toxic to the human corneal epithelial cells

CS(=O)(=O)c1cccc(C[C@H](NC(=O)c2c(Cl)cc3c(c2Cl)CCN(C(=O)c2ccc4ccoc4c2)C3)C(=O)O)c1 [lifitegrast]
effect on dry eye disease severity (disease score, CFS) [2]: no improvement in reducing in disease severity for the first six days of treatment, followed by an improved disease score at day 12 | goblet cells, percent of the normal number [3]: about 60%
